According to patent US6355799B1, “Substituted benzene compounds, process for their preparation, and herbicidal and defoliant compositions containing them” (ISK Americas Incorporated, priority 1997, dated 2002):

How the values were obtained:
Assay type in all cases: in vivo
[1] = tested on: field corn (Zea mays L., var. Dekalb 535, CORN); test: Post-emerge test, crop safety; conditions: rating scale 0-100 (0 no damage, 100 complete death), 14 days after application
Outline: (§1)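 Compounds in acetone were track-sprayed at 15-1000 g ai/ha (187 l/ha) on sandy loam pots: pre-emerge one day after seeding, post-emerge at 2-3 leaf stage with 0.25% v/v non-ionic surfactant. Phytotoxicity was rated 14 days later on a 0 (no damage) to 100 (complete death) scale.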

[2] = tested on: upland rice (Oryza sp., var. Tebonnet, RICE); test: Post-emerge test, crop safety; conditions: rating scale 0-100 (0 no damage, 100 complete death), 14 days after application
Outline: as §1

[3] = tested on: redroot pigweed (Amaranthus retroflexus, AMARE); test: Pre-emerge test, greenhouse herbicide activity screening; conditions: rating scale 0-100, 14 days after application
Outline: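 Sandy loam pots; pre-emerge: sown 1 d pre-spray, surface-watered after, then bottom-watered. Post-emerge: sown 8–21 d before, 2–3 leaf stage, + 0.25% v/v NIS, bottom-watered. Acetone, 187 l/ha track spray, 15–1000 g ai/ha. 0–100 injury score, day 14.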

[4] = tested on: barnyardgrass (Echinochloa crus-galli, ECHCG); test: as above; conditions: rating scale 0-100, 14 days after application
Outline: as §1

[5] = tested on: ivyleaf morningglory (Ipomoea hederacea, IPOHE); test: as above; conditions: rating scale 0-100, 14 days after application
Outline: as §1

[6] = tested on: lambsquarters (Chenopodium album, CHEAL); test: as above; conditions: rating scale 0-100, 14 days after application
Outline: as §1

[7] = tested on: large crabgrass (Digitaria sanguinalis, DIGSA); test: as above; conditions: rating scale 0-100, 14 days after application
Outline: as §1

[8] = tested on: sicklepod (Cassia obtusifolia, CASOB); test: as above; conditions: rating scale 0-100, 14 days after application
Outline: as §1

[9] = tested on: green foxtail (Setaria viridis, SETVI); test: as above; conditions: rating scale 0-100, 14 days after application
Outline: as §1

[10] = tested on: velvetleaf (Abutilon theophrasti, ABUTH); test: as above; conditions: rating scale 0-100, 14 days after application
Outline: as §1

[11] = tested on: johnsongrass (Sorghum halepense, SORHA); test: as above; conditions: rating scale 0-100, 14 days after application
Outline: as §1

[12] = tested on: barnyardgrass (Echinochloa crus-galli, ECHCG); test: Post-emerge test, greenhouse herbicide activity screening; conditions: rating scale 0-100 (0 no damage, 100 complete death), 14 days after application
Outline: (§2)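 Applied at 15–1000 g ai/ha from acetone in 187 l/ha spray volume. Post-emergence applications included 0.25% v/v non-ionic surfactant and reached plants sown 8–21 days before. Pre-emergence applications were incorporated by surface watering. Efficacy or crop damage was rated on a 0–100 scale after 14 days.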

[13] = tested on: common ragweed (Ambrosia artemisizfolia L., AMBEL); test: as above; conditions: rating scale 0-100 (0 no damage, 100 complete death), 14 days after application
Outline: as §2

[14] = tested on: ivyleaf morningglory (Ipomoea hederacea, IPOHE); test: as above; conditions: rating scale 0-100 (0 no damage, 100 complete death), 14 days after application
Outline: as §2

[15] = tested on: lambsquarters (Chenopodium album, CHEAL); test: as above; conditions: rating scale 0-100 (0 no damage, 100 complete death), 14 days after application
Outline: as §2

[16] = tested on: large crabgrass (Digitaria sanguinalis, DIGSA); test: as above; conditions: rating scale 0-100 (0 no damage, 100 complete death), 14 days after application
Outline: as §2

[17] = tested on: sicklepod (Cassia obtusifolia, CASOB); test: as above; conditions: rating scale 0-100 (0 no damage, 100 complete death), 14 days after application
Outline: as §2

[18] = tested on: redroot pigweed (Amaranthus retroflexus, AMARE); test: as above; conditions: rating scale 0-100 (0 no damage, 100 complete death), 14 days after application
Outline: as §2

[19] = tested on: green foxtail (Setaria viridis, SETVI); test: as above; conditions: rating scale 0-100 (0 no damage, 100 complete death), 14 days after application
Outline: as §2

[20] = tested on: velvetleaf (Abutilon theophrasti, ABUTH); test: as above; conditions: rating scale 0-100 (0 no damage, 100 complete death), 14 days after application
Outline: as §2

[21] = tested on: johnsongrass (Sorghum halepense, SORHA); test: as above; conditions: rating scale 0-100 (0 no damage, 100 complete death), 14 days after application
Outline: as §2

[22] = tested on: field corn (Zea mays L., var. Dekalb 535, CORN); test: Pre-emerge test, crop safety; conditions: rating scale 0-100, 14 days after application
Outline: (§3)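 Rating: 0–100 visual injury, 14 DAA. Application: acetone, 187 l/ha, 15–1000 g ai/ha, flat-fan track sprayer with nozzle 40–45 cm above soil or canopy. Post-emerge runs used 0.25% v/v surfactant on 2–3 leaf plants.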

[23] = tested on: upland rice (Oryza sp., var. Tebonnet, RICE); test: Pre-emerge test, crop safety; conditions: rating scale 0-100, 14 days after application
Outline: as §3

Question: With `COc1c(Cl)cc(F)c(-n2c(=O)cc(C(F)(F)F)n(C)c2=O)c1CC(C)(Cl)C(=O)OCC(F)(F)C(F)F` (stereo not shown) [14-45] as the molecule, how does the “Post-emerge phytotoxicity rating CORN (crop damage)” value ([1]; Rate 63 g ai/ha) read?
Answer: Its value is 70.

Question: And the “Post-emerge phytotoxicity rating CORN (crop damage)” value ([1]; Rate 250 g ai/ha)?
Answer: The value was 100.

Question: What about the “Post-emerge phytotoxicity rating RICE (crop damage)” value ([2]; Rate 63 g ai/ha) of the same molecule?
Answer: The value was 70.

Question: And the “Post-emerge phytotoxicity rating RICE (crop damage)” value ([2]; Rate 250 g ai/ha)?
Answer: Its value is 100.

Question: What about the “Pre-emerge herbicidal activity, phytotoxicity rating AMARE” value ([3]; 63 g ai/ha) of the same molecule?
Answer: The value was 100.

Question: What about the “Pre-emerge herbicidal activity, phytotoxicity rating AMARE” value ([3]; 250 g ai/ha) of the same molecule?
Answer: Its value is 100.

Question: And the “Pre-emerge herbicidal activity, phytotoxicity rating ECHCG” value ([4]; 63 g ai/ha)?
Answer: Its value is 0.

Question: What about the “Pre-emerge herbicidal activity, phytotoxicity rating ECHCG” value ([4]; 250 g ai/ha) of the same molecule?
Answer: Its value is 80.

Question: What about the “Pre-emerge herbicidal activity, phytotoxicity rating IPOHE” value ([5]; 63 g ai/ha) of the same molecule?
Answer: The value was 0.

Question: And the “Pre-emerge herbicidal activity, phytotoxicity rating IPOHE” value ([5]; 250 g ai/ha)?
Answer: The value was 0.

Question: And the “Pre-emerge herbicidal activity, phytotoxicity rating CHEAL” value ([6]; 63 g ai/ha)?
Answer: The value was 95.

Question: And the “Pre-emerge herbicidal activity, phytotoxicity rating CHEAL” value ([6]; 250 g ai/ha)?
Answer: Its value is 100.

Question: And the “Pre-emerge herbicidal activity, phytotoxicity rating DIGSA” value ([7]; 63 g ai/ha)?
Answer: The value was 30.

Question: What about the “Pre-emerge herbicidal activity, phytotoxicity rating DIGSA” value ([7]; 250 g ai/ha) of the same molecule?
Answer: Its value is 99.

Question: And the “Pre-emerge herbicidal activity, phytotoxicity rating CASOB” value ([8]; 63 g ai/ha)?
Answer: Its value is 0.

Question: What about the “Pre-emerge herbicidal activity, phytotoxicity rating CASOB” value ([8]; 250 g ai/ha) of the same molecule?
Answer: The value was 0.

Question: And the “Pre-emerge herbicidal activity, phytotoxicity rating SETVI” value ([9]; 63 g ai/ha)?
Answer: The value was 0.

Question: What about the “Pre-emerge herbicidal activity, phytotoxicity rating SETVI” value ([9]; 250 g ai/ha) of the same molecule?
Answer: Its value is 95.

Question: And the “Pre-emerge herbicidal activity, phytotoxicity rating ABUTH” value ([10]; 63 g ai/ha)?
Answer: The value was 100.

Question: What about the “Pre-emerge herbicidal activity, phytotoxicity rating ABUTH” value ([10]; 250 g ai/ha) of the same molecule?
Answer: Its value is 100.

Question: What about the “Pre-emerge herbicidal activity, phytotoxicity rating SORHA” value ([11]; 63 g ai/ha) of the same molecule?
Answer: Its value is 0.

Question: And the “Pre-emerge herbicidal activity, phytotoxicity rating SORHA” value ([11]; 250 g ai/ha)?
Answer: Its value is 50.

Question: What about the “Post-emerge Herbicidal Activity, phytotoxicity rating ECHCG” value ([12]; Rate 63 g ai/ha) of the same molecule?
Answer: The value was 100.

Question: What about the “Post-emerge Herbicidal Activity, phytotoxicity rating ECHCG” value ([12]; Rate 250 g ai/ha) of the same molecule?
Answer: The value was 100.

Question: What about the “Post-emerge Herbicidal Activity, phytotoxicity rating AMBEL” value ([13]; Rate 63 g ai/ha) of the same molecule?
Answer: Its value is 100.

Question: What about the “Post-emerge Herbicidal Activity, phytotoxicity rating AMBEL” value ([13]; Rate 250 g ai/ha) of the same molecule?
Answer: Its value is 100.

Question: What about the “Post-emerge Herbicidal Activity, phytotoxicity rating IPOHE” value ([14]; Rate 63 g ai/ha) of the same molecule?
Answer: The value was 100.

Question: And the “Post-emerge Herbicidal Activity, phytotoxicity rating IPOHE” value ([14]; Rate 250 g ai/ha)?
Answer: The value was 100.

Question: And the “Post-emerge Herbicidal Activity, phytotoxicity rating CHEAL” value ([15]; Rate 63 g ai/ha)?
Answer: Its value is 100.

Question: And the “Post-emerge Herbicidal Activity, phytotoxicity rating CHEAL” value ([15]; Rate 250 g ai/ha)?
Answer: The value was 100.

Question: What about the “Post-emerge Herbicidal Activity, phytotoxicity rating DIGSA” value ([16]; Rate 63 g ai/ha) of the same molecule?
Answer: Its value is 90.

Question: And the “Post-emerge Herbicidal Activity, phytotoxicity rating DIGSA” value ([16]; Rate 250 g ai/ha)?
Answer: Its value is 100.

Question: What about the “Post-emerge Herbicidal Activity, phytotoxicity rating CASOB” value ([17]; Rate 63 g ai/ha) of the same molecule?
Answer: The value was 30.

Question: What about the “Post-emerge Herbicidal Activity, phytotoxicity rating CASOB” value ([17]; Rate 250 g ai/ha) of the same molecule?
Answer: Its value is 30.

Question: What about the “Post-emerge Herbicidal Activity, phytotoxicity rating AMARE” value ([18]; Rate 63 g ai/ha) of the same molecule?
Answer: Its value is 100.

Question: And the “Post-emerge Herbicidal Activity, phytotoxicity rating AMARE” value ([18]; Rate 250 g ai/ha)?
Answer: Its value is 100.

Question: And the “Post-emerge Herbicidal Activity, phytotoxicity rating SETVI” value ([19]; Rate 63 g ai/ha)?
Answer: Its value is 70.

Question: What about the “Post-emerge Herbicidal Activity, phytotoxicity rating SETVI” value ([19]; Rate 250 g ai/ha) of the same molecule?
Answer: Its value is 95.

Question: And the “Post-emerge Herbicidal Activity, phytotoxicity rating ABUTH” value ([20]; Rate 63 g ai/ha)?
Answer: The value was 100.

Question: What about the “Post-emerge Herbicidal Activity, phytotoxicity rating ABUTH” value ([20]; Rate 250 g ai/ha) of the same molecule?
Answer: The value was 100.

Question: And the “Post-emerge Herbicidal Activity, phytotoxicity rating SORHA” value ([21]; Rate 63 g ai/ha)?
Answer: Its value is 70.

Question: What about the “Post-emerge Herbicidal Activity, phytotoxicity rating SORHA” value ([21]; Rate 250 g ai/ha) of the same molecule?
Answer: The value was 90.

Question: What about the “Pre-emerge phytotoxicity rating, crop damage CORN” value ([22]; 63 g ai/ha) of the same molecule?
Answer: Its value is 0.

Question: And the “Pre-emerge phytotoxicity rating, crop damage CORN” value ([22]; 250 g ai/ha)?
Answer: Its value is 10.

Question: And the “Pre-emerge phytotoxicity rating, crop damage RICE” value ([23]; 63 g ai/ha)?
Answer: Its value is 10.

Question: What about the “Pre-emerge phytotoxicity rating, crop damage RICE” value ([23]; 250 g ai/ha) of the same molecule?
Answer: Its value is 80.
